Broadly, the inhibition is the relative decrease from the control value, in per cent.

Consider 28 molecules from US8796244B2, “Imidazopyridine derivatives as inhibitors of receptor tyrosine kinases” (Astex Therapeutics Ltd, priority 2008, dated 2014).

SMILES strings stand for the structures. Counter-ions that a name gives are not always drawn. Like-named read-outs stand apart in the source and are kept apart here.

The test system of assay [1] is parental wild-type Ba/F3 cells. Nature of the assay: Ba/F3 (WT) cell proliferation assay (Alamar Blue). It counts as cell-based. The conditions noted are these: Mus musculus; for inhibition at 10 µM: BaF3, read-out: BaF3 WT prolif, % inhibition. Background: Resazurin is reduced to fluorescent resorufin, in cell work by metabolically active cells.
Assay [2] concerns LP-1 cell line (FGF-1/Heparin induced pERK). Description: Cell-based pERK ELISA, LP-1 cells. The conditions noted are these: Homo sapiens, LP-1, read-out: LP-1 pERK ELISA (μM).
[3] abbreviates: BaF3, 72 hours, Alamar Blue, read-out: BaF3 WT prolif.
Setting [4] is: BaF3, 72 h, read-out: BaF3 WT prolif (μM).

As to `O=C(NCC(F)(F)F)Nc1cncc(-c2cnc3cc(C#CC4CC4)ccn23)c1` [Example 29, 1-[5-(7-Cyclopropylethynylimidazo[1,2-a]pyridin-3-yl)pyridin-3-yl]-3-(2,2,2-trifluoroethyl)urea], the IC50 in assay [1] (setting [3]) came out at 3.1 µM; in assay [2], 0.12 µM.
For `O=C(NCC(F)(F)F)Nc1cccc(-c2cnc3cc(-c4cnccn4)ccn23)c1` [Example 30, 1-[3-(7-Pyrazin-2-ylimidazo[1,2-a]pyridin-3-yl)phenyl]-3-(2,2,2-trifluoroethyl)urea] the same measures were 0.13 µM and 0.045 µM.
For `O=C(NCC(F)(F)F)Nc1cncc(-c2cnc3cc(Cl)ccn23)c1` [Example 31, 1-[5-(7-Chloroimidazo[1,2-a]pyridin-3-yl)pyridin-3-yl]-3-(2,2,2-trifluoroethyl)urea], the inhibition at 10 µM in assay [1] turned out to be 0%. For the same molecule, in assay [2], the IC50 was determined as 0.82 µM.
As for `O=C(NCC(F)(F)F)Nc1cccc(-c2cnc3cc(-c4ccc(Cl)nn4)ccn23)c1` [Example 33, 1-{3-[7-(6-Chloropyridazin-3-yl)-imidazo[1,2-a]pyridin-3-yl]phenyl}-3-(2,2,2-trifluoroethyl)urea], the IC50 was determined as 0.32 µM in assay [1] (setting [3]) and 0.057 µM in assay [2].
As to `O=C(NCC(F)(F)F)Nc1cccc(-c2cnc3cc(-c4ccncn4)ccn23)c1` [Example 34, 1-[3-(7-Pyrimidin-4-ylimidazo[1,2-a]pyridin-3-yl)phenyl]-3-(2,2,2-trifluoroethyl)urea hydrochloride], in assay [1], the inhibition at 10 µM turned out to be 0%. Besides, the IC50 in assay [2] came out at 0.013 µM.
For `O=C(NCC(F)(F)F)Nc1cncc(-c2cnc3cc(-c4ncccn4)ccn23)c1` [Example 35, 1-[5-(7-Pyrimidin-2-yl-imidazo[1,2-a]pyridine-3-yl)pyridin-3-yl]-3-(2,2,2-trifluoroethyl)urea hydrochloride] the same measures were 0% and 0.33 µM.
Take `CN(C)C1CCN(c2ccc(-c3ccn4c(-c5cccc(NC(=O)NCC(F)(F)F)c5)cnc4c3)nn2)CC1` [Example 36, 1-(3-{7-[6-(4-Dimethylaminopiperidin-1-yl)pyridazin-3-yl]imidazo[1,2-a]pyridin-3-yl}-phenyl)-3-(2,2,2-trifluoroethyl)urea hydrochloride.]: in assay [1], the inhibition at 10 µM is 0%. Moreover, in assay [2], the IC50 worked out at 0.065 µM.
`O=C(NCC(F)(F)F)Nc1cccc(-c2cnc3cc(-c4cnn(C5CNC5)c4)ccn23)c1` [Example 37, 1-{3-[7-(1-Azetidin-3-yl-1H-pyrazol-4-yl)-imidazo[1,2-a]pyridin-3-yl]phenyl}-3-(2,2,2-trifluoroethyl)urea]: the inhibition at 10 µM in assay [1] came out at 3.3%. Further, the IC50 in assay [2] is 0.29 µM.
As for `O=C(NCC(F)(F)F)Nc1cccc(-c2cnc3cc(-c4cnn(C5CCCNC5)c4)ccn23)c1` (centres unmarked) [Example 40, 1-{3-[7-(1-Piperidin-3-yl-1H-pyrazol-4-yl)-imidazo[1,2-a]pyridin-3-yl]-phenyl}-3-(2,2,2-trifluoro-ethyl)-urea formate], the results for the IC50 in assay [1] (setting [4]) and in assay [2] were 4 µM and 0.046 µM, respectively.
Take `CN1CC(n2cc(-c3ccn4c(-c5cccc(NC(=O)NCC(F)(F)F)c5)cnc4c3)cn2)C1` [Example 41, 1-(3-{7-[1-(1-Methyl-azetidin-3-yl)-1H-pyrazol-4-yl]-imidazo[1,2-a]pyridin-3-yl}-phenyl)-3-(2,2,2-trifluoro-ethyl)-urea formate]: the results for the IC50 in assay [1] (setting [4]) and in assay [2] were 2.8 µM and 0.025 µM, respectively.
For `O=C(NCC(F)(F)F)Nc1cccc(-c2cnc3cc(-c4cncnc4)ccn23)c1` [Example 42, 1-[3-(7-Pyrimidin-5-yl-imidazo[1,2-a]pyridin-3-yl)-phenyl]-3-(2,2,2-trifluoro-ethyl)-urea hydrochloride], the IC50 was 1.1 µM in assay [1] (setting [4]) and 0.27 µM in assay [2].
Take `NC(=O)c1sccc1-c1ccn2c(-c3cccc(NC(=O)NCC(F)(F)F)c3)cnc2c1` [Example 43, 3-(3-{3-[3-(2,2,2-Trifluoroethyl)-ureido]-phenyl}-imidazo[1,2-a]pyridin-7-yl)-thiophene-2-carboxylic acid amide hydrochloride]: in assay [1], the inhibition at 10 µM is 0%. Also, the IC50 in assay [2] came out at 0.35 µM.
For `O=C(NCC(F)(F)F)Nc1cccc(-c2cnc3cc(-c4cnn(C5CCNC5)c4)ccn23)c1` (centres unmarked) [Example 45, 1-{3-[7-(1-Pyrrolidin-3-yl-1H-pyrazol-4-yl)-imidazo[1,2-a]pyridin-3-yl]-phenyl}-3-(2,2,2-trifluoro-ethyl)-urea], the inhibition at 10 µM in assay [1] is 0%. The IC50 in assay [2] amounted to 0.35 µM.
The like results for `O=C(NCC(F)(F)F)Nc1cccc(-c2cnc3cc(-c4nccc(C(F)(F)F)n4)ccn23)c1` [Example 46, 1-(2,2,2-Trifluoro-ethyl)-3-{3-[7-(4-trifluoromethyl-pyrimidin-2-yl)-imidazo[1,2-a]pyridin-3-yl]-phenyl}-urea hydrochloride] were, in that order, 27% and 0.18 µM.
Consider `O=C(NCC(F)(F)F)Nc1cccc(-c2cnc3cc(-c4cnn(C5CCOC5)c4)ccn23)c1` (centres unmarked) [Example 47, 1-(3-{7-[1-(Tetrahydro-furan-3-yl)-1H-pyrazol-4-yl]-imidazo[1,2-a]pyridin-3-yl}-phenyl)-3-(2,2,2-trifluoro-ethyl)-urea hydrochloride], for which the IC50 in assay [1] (setting [4]) came to 0.68 µM; in assay [2], 0.0098 µM.
`COc1cc(OC)nc(-c2ccn3c(-c4cccc(NC(=O)NCC(F)(F)F)c4)cnc3c2)n1` [Example 48, 1-{3-[7-(4,6-Dimethoxy-pyrimidin-2-yl)-imidazo[1,2-a]pyridin-3-yl]-phenyl}-3-(2,2,2-trifluoro-ethyl)-urea hydrochloride]: the inhibition at 10 µM in assay [1] was determined as 0%. In addition, the IC50 in assay [2] came to 0.13 µM.
Regarding `O=C(NCC(F)(F)F)Nc1cccc(-c2cnc3cc(-c4ccc(N5CCCCC5)nc4)ccn23)c1` [Example 49, 1-{3-[7-(3,4,5,6-Tetrahydro-2H-[1,2′]bipyridinyl-5′-yl)-imidazo[1,2-a]pyridin-3-yl]-phenyl}-3-(2,2,2-trifluoro-ethyl)-urea hydrochloride], the IC50 in assay [1] (setting [4]) was 0.29 µM; in assay [2] it was 0.017 µM.
With `COc1ccc(-c2ccn3c(-c4cccc(NC(=O)NCC(F)(F)F)c4)cnc3c2)nn1` [Example 51, 1-{3-[7-(6-Methoxy-pyridazin-3-yl)-1,7-imidazo[1,2-a]pyridin-3-yl]-phenyl}-3-(2,2,2-trifluoro-ethyl)-urea], the inhibition at 10 µM in assay [1] was 10%. Also, in assay [2], the IC50 came to 0.015 µM.
For `O=C(NCC(F)(F)F)Nc1cccc(-c2cnc3cc(-c4ccc(=O)[nH]n4)ccn23)c1` [Example 52, 1-{3-[7-(6-Oxo-1,6-dihydropyridazin-3-yl)-imidazo[1,2-a]pyridin-3-yl]-phenyl}-3-(2,2,2-trifluoro-ethyl)-urea] the same measures were 51% and 0.33 µM.
For the molecule `O=C(NCC(F)(F)F)Nc1cccc(-c2cnc3cc(-c4nc5c(s4)CNCC5)ccn23)c1` [Example 53, 1-{3-[7-(4,5,6,7-Tetrahydro-thiazolo[5,4-c]pyridin-2-yl)-imidazo[1,2-a]pyridin-3-yl]-phenyl}-3-(2,2,2-trifluoroethyl)-urea formate], the IC50 in assay [1] (setting [4]) is 4.1 µM; in assay [2], 0.023 µM.
Regarding `Cn1cc(C#Cc2ccn3c(-c4cccc(NC(=O)NCC(F)(F)F)c4)cnc3c2)cn1` [Example 56, 1-{3-[7-(1-Methyl-1H-pyrazol-4-ylethynyl)-imidazo[1,2-a]pyridin-3-yl]-phenyl}-3-(2,2,2-trifluoro-ethyl)-urea formate], the IC50 stood at 4.6 µM in assay [1] (setting [4]) and 0.021 µM in assay [2].
In the case of `Cc1cnc(-c2ccn3c(-c4cccc(NC(=O)NCC(F)(F)F)c4)cnc3c2)nc1` [Example 58, 1-{3-[7-(5-Methyl-pyrimidin-2-yl)-imidazo[1,2-a]pyridin-3-yl]-phenyl}-3-(2,2,2-trifluoro-ethyl)-urea hydrochloride], the IC50 in assay [1] (setting [4]) was 0.7 µM; in assay [2], 0.077 µM.
On to `Cc1ccnc(-c2ccn3c(-c4cccc(NC(=O)NCC(F)(F)F)c4)cnc3c2)n1` [Example 59, 1-{3-[7-(4-Methyl-pyrimidin-2-yl)-imidazo[1,2-a]pyridin-3-yl]-phenyl}-3-(2,2,2-trifluoro-ethyl)-urea hydrochloride], for which the IC50 in assay [1] (setting [4]) came out at 5.1 µM; in assay [2] it was 0.1 µM.
Take `O=C(NCC(F)(F)F)Nc1cccc(-c2cnc3cc(-c4ncc(F)cn4)ccn23)c1` [Example 60, 1-{3-[7-(5-Fluoro-pyrimidin-2-yl)-imidazo[1,2-a]pyridin-3-yl]-phenyl}-3-(2,2,2-trifluoro-ethyl)-urea hydrochloride]: the inhibition at 10 µM in assay [1] is 0%. Besides, the IC50 in assay [2] came out at 0.087 µM.
Take `Cc1nccc(-c2ccn3c(-c4cccc(NC(=O)NCC(F)(F)F)c4)cnc3c2)n1` [Example 61, 1-{3-[7-(2-Methyl-pyrimidin-4-yl)-imidazo[1,2-a]pyridin-3-yl]-phenyl}-3-(2,2,2-trifluoro-ethyl)-urea hydrochloride]: in assay [1], the inhibition at 10 µM was 15%. Further, in assay [2], the IC50 was 0.064 µM.
As for `Cn1nc(-c2ccn3c(-c4cccc(NC(=O)NCC(F)(F)F)c4)cnc3c2)ccc1=O` [Example 62, 1-{3-[7-(1-Methyl-6-oxo-1,6-dihydro-pyridazin-3-yl)-imidazo[1,2-a]pyridin-3-yl]-phenyl}-3-(2,2,2-trifluoro-ethyl)-urea hydrochloride], the values for the IC50 in assay [1] (setting [4]) and in assay [2] were 1.1 µM and 0.11 µM, respectively.
`Cc1ncc(C#Cc2ccn3c(-c4cccc(NC(=O)NCC(F)(F)F)c4)cnc3c2)n1C` [Example 64, 1-{3-[7-(2,3-Dimethyl-3H-imidazol-4-ylethynyl)-imidazo[1,2-a]pyridin-3-yl]-phenyl}-3-(2,2,2-trifluoro-ethyl)-urea]: the IC50 in assay [1] (setting [3]) worked out at 2.5 µM; in assay [2], 0.049 µM.
Turning to `CN1CCC(O)(C#Cc2ccn3c(-c4cccc(NC(=O)NCC(F)(F)F)c4)cnc3c2)CC1` [Example 65, 1-{3-[7-(4-Hydroxy-1-methyl-piperidin-4-ylethynyl)-imidazo[1,2-a]pyridin-3-yl]-phenyl}-3-(2,2,2-trifluoro-ethyl)-urea formate], in assay [1], the inhibition at 10 µM is 8.3%. In addition, the IC50 in assay [2] stood at 1.3 µM.
